The source of these data is patent US11414385B2, “Compounds and methods for treating, detecting, and identifying compounds to treat apicomplexan parasitic diseases” (The University of Chicago, priority 2015, dated 2022).

Series [1] deals with hERG (Homo sapiens, UniProt Q12809). As to the kind of experiment: hERG profile. (In general: The hERG channel carries a current that helps repolarise heart muscle cells.)
For series [2], the system named is Toxoplasma RPS13 delta. As to the kind of experiment: RPS13 delta G0 arrested parasite in interferon gamma knockout mice. As to conditions: with tafenoquine 3 mg/kg single dose, minus tetracycline. It counts as in vivo, Toxoplasma gondii. The procedure:
RPS13 Δ. This G0 arrested parasite persists in tissue culture for prolonged times in the absence of tetracycline. The parasite (x) was used to infect interferon gamma knockout mice. For the first y days no tetracycline was administered. After that time tetracycline was administered. Mice were observed and at the time they appeared ill or at the termination of the experiment they were euthanized and tissues fixed in formalin and stained with hematoxylin and eosin or immunoperoxidase stained and parasite burden was assessed.

Series [3] has as its system HEP G2. Nature of the series: IC50 with HEP G cells (toxicity). The following applies: not toxic. The format is cell-based, human.
In series [4] the target is T1, bovine cytochrome bc (Bos taurus, UniProt P00157).
T1 construct: Whole bovine heart was collected directly from slaughter and transported on ice to the cold room; from tissue; host or cells: bovine heart mitochondria, DDM-solubilised, column-purified
As to the kind of experiment: Binding assays with bovine cytochrome bc1.

In series [5] the test system is CYP. Nature of the series: CYP profile. It counts as in vitro ADME.
Series [6] concerns P. berghei sporozoites, blood and liver stages. As to the kind of experiment: P. berghei sporozoite causal prophylaxis model in mice. The format is in vivo, Plasmodium berghei. The procedure: P. berghei sporozoites. The methods that follow are taken directly from^24,25: From laboratory-reared female Anopheles stephensi, isolation, inoculation and viability check Plasmodium berghei sporozoites (luciferase expressing) were obtained and maintained at 18° C. for 17 to 22 days after feeding on malaria-infected Swiss CD-1/ICR mice. From malaria-infected mosquitoes, salivary glands were extracted and sporozoites obtained. Briefly, mosquitoes were separated into head/thorax and abdomen. Thoraxes and heads were triturated with a mortar and pestle and suspended in medium RPMI 1640 containing 1% C57BL/6 mouse serum (Rockland Co, Gilbertsville, Pa., USA). 50-80 heads with glands total were placed into a 0.5 ml Osaki tube on top of glass wool with enough dissection media to cover the heads. Until all mosquitoes had been dissected, the Osaki tube was kept on ice. Sporozoites that were isolated from the same batch of mosquitoes were inoculated into C57BL/6, 2D knock-out and 2D knock-out/2D6 knock-in C57BL/6 mice on the same day to control for biological variability in sporozoite preparations. On day 0, each mouse was inoculated intravenously in the tail vein with approximately 10,000 sporozoites suspended in 0.1 ml volume. They were stained with a vital dye containing fluorescein diacetate (50 mg/ml in acetone) and ethidium bromide (20 μg/ml in phosphate buffered saline; Sigma Chemical Co, St. Louis, Mo., USA) and counted in a haemocytometer to ensure that inoculated sporozoites were viable following the isolation procedure. Viability of the sporozoites ranged from 90 to 100%.
At the time of preparation of the suspension solution, compounds tested in these experiments were dosed based on the body weight. The suspension solution of oral agents, using homogenizer (PRO Scientific Inc, Monroe, Conn., USA) with 10 mm open-slotted generator to homogenize drug powder mixture at 20,000-22,000 rpm for 5 min in ice bath, were prepared in 0.5% (w/v) hydroxyethyl cellulose and 0.2% (0.5% HECT, v/v) Tween-80 in distilled water. […]
All of the in vivo imaging system (IVIS) methods utilized have been described previously. […] Additionally, using a flow cytometry system (FC500 MPL, Beckman Coulter, Miami, Fla., USA), blood-stage infections were measured. […] D-Luciferin potassium salt, (Xenogen, California and Goldbio, St Louis, Mo., USA), the luciferase substrate, was inoculated intraperitoneally into mice at a concentration of 200 mg/kg 15 min before luminescence analysis. […] Using Living Image® 3.0 software, photons emitted from specific regions were quantified.
Parasitemia was measured after days of IVIS imaging. During a total of 30 days, mice were observed and parasitemia level determined using FACs analysis. […]

The subject of series [7] is S. cerevisiae wild type parental AD1-9 strain. As to the kind of experiment: Yeast growth inhibition on glycerol medium, wild type. It counts as cell-based, Saccharomyces cerevisiae. The following applies: 1 mM, 100, 5 and 1 μM. The procedure:
Three S. cerevisiae strains were used: M221Q and M221F cytochrome b mutants and wild type. They share the same nuclear genetic background deriving from AD1-9 (kindly given by M. Ghislain, UCL, Belgium). AD1-9 harbors multiple deletions in the ABC transporter genes that render the strain more sensitive to drugs than standard yeast strains^S65.
Protocol: Yeast strains were grown over 48 hours at 33° C. in liquid YPG medium [1% yeast extract, 2% (wt/vol) peptone, and 3% (vol/vol) glycerol). Cultures were diluted to an OD600 of 0.05 and grown for 2 hrs. Cultures were then combined with YPG containing 6% melted agar for a total volume of 15-20 mL and poured onto OmniTray single-well rectangular plates that measured 86 mm by 128 mm (ThermoScientific). Filter paper disks (7 mm diameter, […]) were placed onto the cooled agar plates. […] A single disk with DMSO on each plate was used as a control. Plates were incubated at 33° C. Images were obtained after 4 days using GelDoc XR Imaging System (BioRad) and Quantity One software. Drug effect was assessed by the presence and size of a zone of inhibition around the disks.

[8] abbreviates: P. berghei, 0.625 mg/kg x3 or 2.5 mg/kg single oral dose.

“Also recorded” adds a separate entry of the source. Where only a bound is given, the exact number is not on record here.

Chain of hERG (Q12809 whole entry): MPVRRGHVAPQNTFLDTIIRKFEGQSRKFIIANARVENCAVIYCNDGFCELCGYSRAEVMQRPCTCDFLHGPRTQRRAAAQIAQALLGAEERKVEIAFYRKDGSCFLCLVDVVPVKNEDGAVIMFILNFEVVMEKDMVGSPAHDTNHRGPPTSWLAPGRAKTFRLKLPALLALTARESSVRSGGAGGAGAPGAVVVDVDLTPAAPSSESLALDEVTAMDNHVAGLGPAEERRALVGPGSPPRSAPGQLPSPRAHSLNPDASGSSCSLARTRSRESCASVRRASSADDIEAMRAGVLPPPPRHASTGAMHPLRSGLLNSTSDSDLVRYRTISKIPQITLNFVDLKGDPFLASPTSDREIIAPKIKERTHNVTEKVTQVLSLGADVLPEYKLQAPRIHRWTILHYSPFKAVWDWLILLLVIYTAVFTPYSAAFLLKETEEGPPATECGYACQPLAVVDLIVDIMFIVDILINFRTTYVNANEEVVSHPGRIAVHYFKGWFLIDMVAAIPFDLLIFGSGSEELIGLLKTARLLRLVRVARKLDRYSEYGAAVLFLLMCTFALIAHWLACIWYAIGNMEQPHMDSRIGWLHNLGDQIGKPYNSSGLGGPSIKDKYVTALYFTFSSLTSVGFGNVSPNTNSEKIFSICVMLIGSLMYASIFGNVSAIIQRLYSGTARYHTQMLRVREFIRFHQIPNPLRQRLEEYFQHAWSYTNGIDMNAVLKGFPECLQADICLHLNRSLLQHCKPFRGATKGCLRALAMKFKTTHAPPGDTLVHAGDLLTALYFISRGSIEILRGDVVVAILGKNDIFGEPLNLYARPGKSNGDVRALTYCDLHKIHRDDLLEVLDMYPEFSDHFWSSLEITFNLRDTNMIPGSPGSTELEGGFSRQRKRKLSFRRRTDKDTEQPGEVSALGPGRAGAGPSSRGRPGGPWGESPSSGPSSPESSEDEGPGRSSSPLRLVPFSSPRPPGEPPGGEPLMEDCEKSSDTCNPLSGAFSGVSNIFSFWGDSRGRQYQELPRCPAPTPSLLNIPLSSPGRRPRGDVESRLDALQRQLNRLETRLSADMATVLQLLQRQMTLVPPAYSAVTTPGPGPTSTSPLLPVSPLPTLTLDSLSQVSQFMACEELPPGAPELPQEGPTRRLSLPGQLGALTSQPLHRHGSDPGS

On to `Cc1[nH]c2c(c(=O)c1-c1ccc(Oc3ccc(OC(F)(F)F)cc3)cc1)CCCC2` [JAG21, 2-methyl-3-(4-(4-(trifluoromethoxy)phenoxy)phenyl)-5,6,7,8-tetrahydroquinolin-4(1H)-one], for which, in series [1], the “hERG profile” value is “clean”. Also, in series [2], the “protection against RPS13 delta in combination with tafenoquine” value is on record as “both needed to contain RPS 13Δ; also recorded: protect against a G0 arrested parasite; also recorded: superior to either alone”. Besides, the “toxicity to human HepG cells” value in series [3] is greater than 17 µM. Also, the “inhibition of bovine Cytbc1” value in series [4] is “but not fully”. Further, the “binding affinity to bovine cytochrome bc” value in series [4] (in comparison with previous compounds) was “lower binding affinity”. The “CYP profile” value in series [5] was “clean”. The “P. berghei cure, 3 oral doses” value in series [6] (3 oral doses (days -1, 0, +1), 0.625 mg/kg) was “protect and cure”. In addition, in series [6] (setting [8]), the parasitemia entry is given as “no parasitemia” and the “survival at 30 days” value was determined as 100%. The “P. berghei cure, single oral dose” value in series [6] (single dose 2.5 mg/kg, oral, 2.5 mg/kg) was “cures and cure”.

`Cc1[nH]c2c(c(=O)c1-c1ccc(Oc3ccccc3)cc1)CCCC2` [MJM170]: in series [7], the “growth inhibition of wild type yeast” value is listed as “effective”.
